This is an account of results in PubChem BioAssay (NCI).

What all share (test): NCI tumour cell line growth inhibition, 48 h
Experiment [1] has as its system A549 NSCLC.
Experiment [2] relates to CCRF-CEM leukemia.
Experiment [3] deals with HOP-62 NSCLC.
The subject of experiment [4] is K-562 leukemia.
For experiment [5], the system named is OVCAR-3 ovarian.
The subject of experiment [6] is SF-539 CNS.
Experiment [7] has as its system SK-OV-3 ovarian.
Experiment [8] has as its system SW-620 colon.
The test system of experiment [9] is TK-10 renal.
Experiment [10] has as its system UACC-62 melanoma.

Structures are written as SMILES.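 The compound was tested at five concentrations on cells cultured in 96-well plates, with a 48-hour exposure period. Abbreviation: GI50, concentration required for 50% inhibition of growth. TGI: total growth inhibition.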 Where only a bound is given, the exact number is not on record here.

Turning to `COc1ccc(-n2cc(-c3cc(OC)c(OC)c(OC)c3)[nH]c2=O)cc1Cl`, the GI50 in experiment [1] is > 100 µM; in experiment [2], > 100 µM; in experiment [3], 51.7 µM; in [4], > 100 µM; in experiment [5] it was > 100 µM; in [6] it was 35 µM. The GI50 was 31.8 µM in [7], > 100 µM in [8], 55.2 µM in experiment [9] and 51.1 µM in experiment [10]. For the same compound, the TGI in experiment [1], in experiment [2], in experiment [3], in experiment [4], in [5] and in experiment [6] was > 100 µM in each case. The TGI in experiment [7], in experiment [8], in experiment [9] and in experiment [10] was > 100 µM in each case.
In the case of `CCCCN1CSC(=S)N(Cc2ccccc2)C1`, the TGI in experiment [1] is > 100 µM; in experiment [2], 32.9 µM; in experiment [3], > 100 µM; in experiment [4], > 100 µM; in experiment [5] it was > 69.8 µM; in experiment [6] it was > 100 µM. The TGI in experiment [7], in experiment [8], in experiment [9] and in [10] was > 100 µM each time.
As to `COc1ccc(C2SCC(=O)N2NC(=O)Nc2c(C)nc3ccccn23)cc1` (stereo unspecified), the GI50 in [1] was > 100 µM; in experiment [2] it was > 100 µM; in [3], 16.4 µM; in experiment [4] it was > 100 µM; in experiment [5], > 100 µM; in experiment [6], 34.1 µM. Also, the GI50 was 24.5 µM in [7], > 100 µM in [8], 22.6 µM in [9] and 39.6 µM in experiment [10]. Also, the TGI in experiment [1] is > 100 µM; in experiment [2] it was > 100 µM; in [3] it was 31.1 µM; in experiment [4] it was > 100 µM; in [5], > 100 µM; in [6], > 100 µM. In addition, the TGI in experiment [7] is 47.6 µM; in experiment [8], > 100 µM; in experiment [9] it was 49 µM; in [10], > 100 µM.
With `COC(=O)[C@H](Cc1c[nH]c2ccccc12)NC(=O)[C@@H](OC)[C@@H]1Cc2cc3cc(OC4CC(OC5CC(O)C(O)C(C)O5)C(O)C(C)O4)c(C)c(O)c3c(O)c2C(=O)[C@H]1OC1CC(OC2CC(OC3CC(C)(O)C(O)C(C)O3)C(O)C(C)O2)C(O)C(C)O1` (stereo partly specified), the GI50 was 0.00873 µM in experiment [1]; 0.0064 µM in experiment [2]; 0.00771 µM in experiment [3]; 0.0118 µM in experiment [4]; 0.00701 µM in experiment [5]; 0.00546 µM in [6]. Besides, the GI50 is 0.0116 µM in [7], 0.00863 µM in [8], 0.0651 µM in [9] and 0.00361 µM in [10]. Further, the TGI is > 16.5 µM in [1]; > 6.28 µM in experiment [2]; 5.53 µM in [3]; > 16.5 µM in experiment [4]; 0.112 µM in experiment [5]; 0.0244 µM in experiment [6]. Moreover, the figures for the TGI in experiment [7], in experiment [9] and in experiment [10] were > 16.5 µM, > 6.46 µM and 0.00983 µM, respectively.
As to `O=C1/C(=C/c2ccc(O)cc2)CSc2ccc(Cl)cc21`, the GI50 in experiment [1] was 32 µM; in [2], 0.58 µM; in [3], 14.2 µM; in experiment [4], 2.36 µM; in experiment [5] it was 5.69 µM; in experiment [6], 16.8 µM. Moreover, the GI50 in experiment [7] is 23 µM; in experiment [8] it was 1.99 µM; in experiment [9], 15.6 µM; in experiment [10] it was 12.2 µM. The TGI in [1] is > 100 µM; in experiment [2] it was > 100 µM; in experiment [3] it was 45 µM; in [4], > 100 µM; in [5] it was 19.4 µM; in [6], 31.4 µM. The TGI came to 44.6 µM in experiment [7], 4.04 µM in experiment [8], 34.2 µM in [9] and 26.2 µM in experiment [10].
`CSc1nc2cc(S(=O)(=O)N3CCCCC3)ccc2s1`: the TGI in experiment [1], in experiment [2], in experiment [3], in experiment [4], in [5] and in [6] was > 100 µM throughout. Also, the TGI in [7], in experiment [8], in [9] and in [10] was > 100 µM in each case.
For the compound `Clc1ccc(-c2c(C3=NCCCN3)nnn2-c2ccc(Cl)cc2)cc1`, the TGI in [1] is > 100 µM; in experiment [2], > 83.3 µM; in experiment [3], > 82.6 µM; in experiment [4], 48.5 µM; in [5], > 100 µM; in experiment [6] it was 67.5 µM. The TGI in experiment [7] is > 100 µM; in experiment [8], > 76.5 µM; in experiment [9], > 77.5 µM; in experiment [10], 36 µM.
For the compound `CCc1ccc(Nc2ccc([N+](=O)[O-])cc2[N+](=O)[O-])cc1`, the TGI in [1], in experiment [2], in [3], in experiment [4], in experiment [5] and in experiment [6] was > 100 µM each time. For the same compound, the TGI in experiment [7], in [8], in experiment [9] and in experiment [10] was > 100 µM throughout.
`CC1(C)N=C(N)N=C(N)N1c1ccc(OCc2ccc(S(=O)(=O)F)c(Cl)c2)c(Cl)c1`: the GI50 in experiment [1] was 0.499 µM; in experiment [2] it was 1.06 µM; in experiment [3], 7.93 µM; in experiment [4], 0.448 µM; in experiment [5], 4.69 µM; in experiment [6], 4.57 µM. The GI50 is > 100 µM in experiment [7], 0.424 µM in experiment [8], 59.2 µM in experiment [9] and 0.74 µM in experiment [10]. Besides, the TGI in experiment [1], in experiment [2], in experiment [3], in [4], in experiment [5] and in [6] was > 100 µM in each case. Also, the TGI in experiment [7], in experiment [8], in experiment [9] and in experiment [10] was > 100 µM each time.
In the case of `COc1ccc(/C(Cl)=C(\C=O)c2ccc([N+](=O)[O-])cc2)cc1`, the TGI in [1] is 66.6 µM; in experiment [2], 23.2 µM; in [3], 52.8 µM; in [4], > 37.5 µM; in experiment [5], 53.4 µM; in [6] it was 32.2 µM. Moreover, the TGI in experiment [7] is 76.7 µM; in [8] it was > 49.1 µM; in experiment [9], > 73.6 µM; in [10], 33.1 µM.
For `O=C(O)[C@@H]1CCCCN1Cc1cc2cc3c(cc2c2cc(OCc4ccccc4)ccc12)OCO3`, the GI50 is 3.74 µM in experiment [1]; 14.9 µM in experiment [2]; 16.1 µM in [3]; 36.7 µM in experiment [4]; 6.79 µM in [5]; 3.87 µM in [6]. The GI50 in [7] was 6.47 µM; in experiment [8], 1.84 µM; in experiment [9] it was 3.36 µM; in [10], 1.49 µM. In addition, the TGI in experiment [1] is 15.1 µM; in [2], > 100 µM; in experiment [3] it was 31.6 µM; in experiment [4] it was > 100 µM; in experiment [5], 36.2 µM; in experiment [6] it was 16.6 µM. Also, the TGI in experiment [7] was 34.3 µM; in experiment [8], 13.8 µM; in experiment [9], > 100 µM; in [10] it was 3.08 µM.
On to `O=C1NC2OCC(O)C(O)C2O1` (stereo unspecified), for which the TGI in experiment [1], in experiment [2], in [3], in [4], in experiment [5] and in [6] was > 100 µM each time. For the same compound, the TGI in experiment [7], in [8], in [9] and in experiment [10] was > 100 µM in each case.
For the compound `COc1cc2c3c(n(CCCCOC(=O)C(Cl)(Cl)Cl)c(=O)c2cc1OC)-c1cc2c(cc1C3=O)OCO2`, the GI50 is > 100 µM in experiment [1]; 10.5 µM in experiment [2]; 29.3 µM in [3]; > 100 µM in experiment [4]; > 100 µM in [5]; 60.1 µM in experiment [6]. The GI50 was > 100 µM in experiment [7], 85.5 µM in experiment [8], > 100 µM in [9] and 22.5 µM in experiment [10]. Moreover, the TGI in experiment [1], in experiment [2], in experiment [3], in experiment [4], in experiment [5] and in experiment [6] was > 100 µM in each case. In addition, the TGI in [7], in [8], in experiment [9] and in [10] was > 100 µM each time.
Take `FC(F)(F)c1nc(-c2ccccc2)oc1Sc1nnc(Sc2oc(-c3ccccc3)nc2C(F)(F)F)s1`: the TGI in experiment [1] is > 100 µM; in experiment [2] it was 34.8 µM; in [3], > 100 µM; in experiment [4] it was > 64.5 µM; in experiment [5], > 57.7 µM; in experiment [6] it was > 100 µM. Also, the TGI in experiment [7] is > 100 µM; in experiment [8] it was > 100 µM; in experiment [9], > 100 µM; in experiment [10], > 65.8 µM.
Turning to `COC(=O)c1c(C)[nH]c(/C=C2\N=C(c3ccc[nH]3)C=C2OC)c1C`, the GI50 in [1] was 0.387 µM; in [2], 0.0501 µM; in experiment [3] it was 0.769 µM; in experiment [4] it was 0.764 µM; in [5], 0.152 µM; in experiment [6] it was 0.756 µM. The GI50 in [7] was 2.69 µM; in [8], 0.0365 µM; in experiment [9], 0.141 µM; in experiment [10], 0.287 µM. Also, the TGI in [2] was > 100 µM; in [4], > 27.5 µM; in experiment [5] it was 2.09 µM; in experiment [6], 2.29 µM; in [7], > 100 µM; in experiment [9], 4.03 µM. Further, in experiment [10], the TGI worked out at 0.921 µM.
For `C/C=C(\C)CC/C=C/CO[Si](C)(C)C(C)(C)C`, the TGI was > 100 µM in experiment [1]; 49.6 µM in [2]; > 100 µM in experiment [3]; > 100 µM in experiment [4]; > 100 µM in [5]; > 100 µM in experiment [6]. Further, the TGI in experiment [7], in [8], in experiment [9] and in experiment [10] was > 100 µM each time.
Consider `Fc1ccc(-c2nn3ncccc3c2-c2ccnc(Nc3ccc4c(c3)OCCO4)n2)cc1`, for which the GI50 in experiment [1] was 2.71 µM; in [2] it was 6.22 µM; in [3] it was 15.2 µM; in experiment [4], 2.68 µM; in experiment [5] it was 2.12 µM; in experiment [6], 6.59 µM. Also, the GI50 in experiment [7] is 1.23 µM; in experiment [8] it was 5.82 µM; in [9] it was 1.35 µM; in experiment [10], 3.97 µM. Also, the TGI in [1] is > 25 µM; in experiment [2], > 25 µM; in experiment [3] it was > 25 µM; in [4], > 25 µM; in experiment [5], > 16.2 µM; in [6], > 25 µM. Further, the TGI in experiment [7] is > 25 µM; in [8], > 18.9 µM; in experiment [9], 9.93 µM; in [10] it was 9.12 µM.
Regarding `CC(C)c1ccc(C(c2ccc(OCC(=O)O)cc2)c2ccc(C(C)C)cc(=O)c2O)c(O)c(=O)c1`, the TGI in [1] amounted to 21.3 µM; in experiment [2] it was 85.2 µM; in [3], 26.2 µM; in experiment [4], 35.5 µM; in experiment [5], 8.31 µM; in experiment [6], 31.3 µM. Further, the TGI in [7] was 41.9 µM; in experiment [8], > 100 µM; in experiment [9], 42.8 µM; in experiment [10], 20.7 µM.
